Results as given in patent US20240108006A1, “PESTICIDALLY ACTIVE HETEROAROMATIC COMPOUNDS” (SYNGENTA CROP PROTECTION AG, priority 2021, published 2024).
Like-named read-outs stand apart in the source and are kept apart here.

Tests used:
Type in all cases: in vivo
[1] = test system: Chilo suppressalis; assay: Example B1: Chilo suppressalis (striped rice stemborer), artificial diet, L2 larvae; settings: 144 h, application rate of 200 ppm, 6 days after infestation, read-out: control in at least one of the three categories (mortality, anti-feedant effect, or growth inhibition)
How it was run: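 L2 larvae (6-8 per well) were placed on dried artificial diet that had been dosed with aqueous dilutions of 10,000 ppm DMSO stock solutions. After 6 days, control was credited if mortality, antifeedant effect or growth inhibition was higher than in untreated samples.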

[2] = test system: Spodoptera littoralis; assay: Example B9: Spodoptera littoralis (Egyptian cotton leaf worm), cotton leaf discs, L1 larvae; settings: foliar, 72 h, application rate of 200 ppm, 3 days after infestation, read-out: control in at least one of the three categories (mortality, anti-feedant effect, or growth inhibition)
Procedure: Example B9: Spodoptera littoralis (Egyptian Cotton Leaf Worm)
Cotton leaf discs were placed onto agar in 24-well microtiter plates and sprayed with aqueous test solutions prepared from 10,000 ppm DMSO stock solutions. After drying the leaf discs were infested with five L1 larvae. The samples were assessed for mortality, anti-feeding effect, and growth inhibition in comparison to untreated samples 3 days after infestation. Control of Spodoptera littoralis by a test sample is given when at least one of the categories mortality, anti-feedant effect, and growth inhibition is higher than the untreated sample.

[3] = test system: Plutella xylostella; assay: Example B8: Plutella xylostella (diamond back moth), artificial diet 24-well, eggs; settings: 192 h, application rate of 200 ppm, 8 days after infestation, read-out: effect in at least one of the two categories (mortality or growth inhibition)
How it was run: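 Plutella eggs placed onto dried, compound-treated artificial diet, the aqueous test solutions diluted from 10,000 ppm DMSO stocks. Eight days post-infestation, larvae rated for mortality and growth inhibition relative to untreated controls.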

[4] = test system: Myzus persicae; assay: Example B7: Myzus persicae (green peach aphid), intrinsic activity, sucrose solution 24-well; settings: 120 h, read-out: control (mortality)
From the text: Example B7: Myzus persicae (Green Peach Aphid). Intrinsic Activity
Test compounds prepared from 10,000 ppm DMSO stock solutions were applied by pipette into 24-well microtiter plates and mixed with sucrose solution. The plates were closed with a stretched Parafilm. A plastic stencil with 24 holes was placed onto the plate and infested pea seedlings were placed directly on the Parafilm. The infested plate was closed with a gel blotting paper and another plastic stencil and then turned upside down. The samples were assessed for mortality 5 days after infestation.
The following compounds gave an effect of at least 80% control at an application rate of 12.5 ppm: […]

[5] = application rate of 12.5 ppm, 5 days after infestation

Row | SMILES | percent control (mortality, anti-feedant effect or growth inhibition) at 200 ppm [1] [%] | percent control (mortality, anti-feedant effect or growth inhibition) at 200 ppm [2] [%] | percent effect (mortality or growth inhibition) at 200 ppm [3] [%] | mortality at 12.5 ppm [4] [%] | mortality at 12.5 ppm [4, 5] [%]
1 | C[C@H](NC(=O)Nc1cc(Br)c(Cl)cc1F)c1ncnn1-c1ncccn1 [Example P300, 1-(5-bromo-4-chloro-2-fluoro-phenyl)-3-[(1S)-1-(2-pyrimidin-2-yl-1,2,4-triazol-3-yl)ethyl]urea] | ≥ 80 | ≥ 80 | ≥ 80 | – | –
2 | C[C@H](NC(=O)Nc1cc(Cl)c(C#N)cc1Cl)c1ncnn1-c1ncccn1 [Example P179, 1-(2,5-dichloro-4-cyano-phenyl)-3-[(1S)-1-(2-pyrimidin-2-yl-1,2,4-triazol-3-yl)ethyl]urea] | – | – | – | ≥ 80 | –
3 | C[C@H](NC(=O)Nc1cc(C(F)(F)F)ccc1Br)c1ncnn1-c1ncccn1 [Example P70, 1-[2-bromo-5-(trifluoromethyl)phenyl]-3-[(1S)-1-(2-pyrimidin-2-yl-1,2,4-triazol-3-yl)ethyl]urea] | ≥ 80 | ≥ 80 | ≥ 80 | – | –
4 | C[C@H](NC(=O)Nc1ccc(C(F)(F)F)cc1)c1ncnn1-c1ncccn1 [Example P122, 1-[(1S)-1-(2-pyrimidin-2-yl-1,2,4-triazol-3-yl)ethyl]-3-[4-(trifluoromethyl)phenyl]urea] | – | – | – | – | ≥ 80
5 | Cc1cc(Br)c(F)cc1NC(=O)N[C@@H](C)c1ncnn1-c1ncccn1 [Example P367, 1-(4-bromo-5-fluoro-2-methyl-phenyl)-3-[(1S)-1-(2-pyrimidin-2-yl-1,2,4-triazol-3-yl)ethyl]urea] | ≥ 80 | ≥ 80 | ≥ 80 | – | –
6 | C[C@H](NC(=O)Nc1ccc(F)cc1S(C)(=O)=O)c1ncnn1-c1ncccn1 [Example P99, 1-(4-fluoro-2-methylsulfonyl-phenyl)-3-[(1S)-1-(2-pyrimidin-2-yl-1,2,4-triazol-3-yl)ethyl]urea] | – | – | – | – | ≥ 80
7 | CC(NC(=O)Nc1cc(C(F)(F)F)c(Cl)cc1Br)c1nccnc1-c1ncccn1 (stereo not drawn) [Example P240, 1-[2-bromo-4-chloro-5-(trifluoromethyl)phenyl]-3-[1-(3-pyrimidin-2-ylpyrazin-2-yl)ethyl]urea] | ≥ 80 | ≥ 80 | ≥ 80 | – | –
8 | C[C@H](NC(=O)Nc1cc(Cl)c(Cl)cc1F)c1ncnn1-c1ncccn1 [Example P118, 1-(4,5-dichloro-2-fluoro-phenyl)-3-[(1S)-1-(2-pyrimidin-2-yl-1,2,4-triazol-3-yl)ethyl]urea] | ≥ 80 | ≥ 80 | ≥ 80 | – | –
9 | CNC(=O)c1cnc(-n2ncnc2[C@H](C)NC(=O)Nc2cc(C(F)(F)F)c(Cl)cc2Cl)s1 [Example P395, 2-[5-[(1S)-1-[[2,4-dichloro-5-(trifluoromethyl)phenyl]carbamoyl-amino]ethyl]-1,2,4-triazol-1-yl]-N-methyl-thiazole-5-carboxamide] | ≥ 80 | ≥ 80 | ≥ 80 | – | –
10 | C[C@H](NC(=O)Nc1ccc(C(F)(F)F)cc1I)c1ncnn1-c1ccc(C#N)cn1 [Example P256, 1-[(1S)-1-[2-(5-cyano-2-pyridyl)-1,2,4-triazol-3-yl]ethyl]-3-[2-iodo-4-(trifluoromethyl)phenyl]urea] | ≥ 80 | ≥ 80 | ≥ 80 | – | –
11 | C[C@H](NC(=O)Nc1cc(F)c(Br)cc1Cl)c1ncnn1-c1ncccn1 [Example P314, 1-(4-bromo-2-chloro-5-fluoro-phenyl)-3-[(1S)-1-(2-pyrimidin-2-yl-1,2,4-triazol-3-yl)ethyl]urea] | ≥ 80 | ≥ 80 | ≥ 80 | – | –
12 | C[C@H](NC(=O)Nc1ccc(Br)cc1OC(F)F)c1nccnc1-c1ccc(C#N)cn1 [Example P247, 1-[4-bromo-2-(difluoromethoxy)phenyl]-3-[(1S)-1-[3-(5-cyano-2-pyridyl)pyrazin-2-yl]ethyl]urea] | ≥ 80 | ≥ 80 | ≥ 80 | – | –
13 | COC(=O)c1cc(NC(=O)N[C@@H](C)c2ncnn2-c2ncccn2)c(C)cc1C [Example P315, methyl 2,4-dimethyl-5-[[(1S)-1-(2-pyrimidin-2-yl-1,2,4-triazol-3-yl)ethyl]carbamoylamino]benzoate] | – | – | – | – | ≥ 80
14 | CC(NC(=O)Nc1cnc(C(F)(F)F)cc1Cl)c1nccnc1-n1nccn1 (stereo not drawn) [Example P264, 1-[4-chloro-6-(trifluoromethyl)-3-pyridyl]-3-[1-[3-(triazol-2-yl)pyrazin-2-yl]ethyl]urea] | ≥ 80 | ≥ 80 | ≥ 80 | – | –
15 | C[C@H](NC(=O)Nc1cc(OC(F)(F)C(F)F)c(Cl)cc1Cl)c1ncnn1-c1ncc(C(=O)N(C)C)s1 [Example P396, 2-[5-[(1S)-1-[[2,4-dichloro-5-(1,1,2,2-tetrafluoroethoxy)phenyl]carbamoyl-amino]ethyl]-1,2,4-triazol-1-yl]-N,N-dimethyl-thiazole-5-carboxamide] | ≥ 80 | ≥ 80 | ≥ 80 | – | –
16 | C[C@H](NC(=O)Nc1ccc(Cl)c(C(F)(F)F)c1)c1nccnc1-c1ccc(C#N)cn1 [Example P7, 1-[4-chloro-3-(trifluoromethyl)phenyl]-3-[(1S)-1-[3-(5-cyano-2-pyridyl)pyrazin-2-yl]ethyl]urea] | ≥ 80 | ≥ 80 | ≥ 80 | – | –
17 | C[C@H](NC(=O)Nc1cc(C(F)(F)F)c(Cl)cc1Br)c1ncnn1-c1ccc(C#N)cn1 [Example P253, 1-[2-bromo-4-chloro-5-(trifluoromethyl)phenyl]-3-[(1S)-1-[2-(5-cyano-2-pyridyl)-1,2,4-triazol-3-yl]ethyl]urea] | ≥ 80 | ≥ 80 | ≥ 80 | – | –
18 | COc1cc(NC(=O)N[C@@H](C)c2ncnn2-c2ncccn2)c(C2CC2)cc1Cl [Example P355, 1-(4-chloro-2-cyclopropyl-5-methoxy-phenyl)-3-[(1S)-1-(2-pyrimidin-2-yl-1,2,4-triazol-3-yl)ethyl]urea] | ≥ 80 | – | – | – | ≥ 80
19 | COc1cc(NC(=O)N[C@@H](C)c2ncnn2-c2ncccn2)c(Cl)cc1Cl [Example P265, 1-(2,4-dichloro-5-methoxy-phenyl)-3-[(1S)-1-(2-pyrimidin-2-yl-1,2,4-triazol-3-yl)ethyl]urea] | ≥ 80 | ≥ 80 | ≥ 80 | – | –
20 | C[C@H](NC(=O)Nc1cc(C(F)(F)F)c(Cl)cc1Cl)c1ncnn1-c1ccc(C#N)cn1 [Example P173, 1-[(1S)-1-[2-(5-cyano-2-pyridyl)-1,2,4-triazol-3-yl]ethyl]-3-[2,4-dichloro-5-(trifluoromethyl)phenyl]urea] | ≥ 80 | ≥ 80 | ≥ 80 | – | –
21 | C[C@H](NC(=O)Nc1cnc(Cl)cc1I)c1ncnn1-c1ncccn1 [Example P271, 1-(6-chloro-4-iodo-3-pyridyl)-3-[(1S)-1-(2-pyrimidin-2-yl-1,2,4-triazol-3-yl)ethyl]urea] | ≥ 80 | ≥ 80 | ≥ 80 | – | –
22 | COc1cc(NC(=O)N[C@@H](C)c2ncnn2-c2ncccn2)c(Cl)cc1Br [Example P351, 1-(4-bromo-2-chloro-5-methoxy-phenyl)-3-[(1S)-1-(2-pyrimidin-2-yl-1,2,4-triazol-3-yl)ethyl]urea] | ≥ 80 | ≥ 80 | ≥ 80 | – | –
